Experiments:
[1] = MTT assay, RAW264.7 cell viability; type: cell-based; details: mouse; RAW 264.7 cells; cytotoxic concentration that produces 50% cell death
Procedure: (§1) The compounds 1 to 24 of the present invention is tested by three pharmacological activity tests as follows: (1) MTT assay to test the RAW264.7 cell (murine monocyte/macrophage cell line) viability; (2) Tartrate-resistant acid phosphatase (TRAP) staining and activity analysis to investigate the cell differentiation activity; (3) The activity test of bone resorption (Pit formation assay).
(§2) The synthesized difunisal derivatives, compounds 1 to 24, were pharmacologically tested to be identified the relationship between their structure and activity. Cell viability was measured by MTT assay in RAW 264.7 cells upon treatment with compounds at 5 μM. CC50 is the cytotoxic concentration that produces 50% (CC50) cell death. […] The multinucleated osteoclasts could be formed by RANKL-induced macrophage cell line […]. RAW 264.7 cells were cultured with the indicated in the presence of drug and RANKL (100 ng/mL). Numbers of TRAP-positive (TRAP^+) multinucleated cells (MNCs) were counted in the presence of RANKL to identify the relationship between osteoclast and bone formation. […] The compound 16 performed the best inhibitory effect in the TRAP staining. The compound 16 was a derivate from compound 4 and its structure was related to compound 4. Therefore, the compound 4 and 16 were performed by TRAP assay to evaluate the effect on osteoclast differentiation by different concentration of compounds. […] According to above result, it can be speculated that: (1) Due to different substitutes on benzene ring of difunisal, the inhibitory ability of RANKL-induced osteoclast differentiation would be different. (2) Due to the electron-withdrawing group substitutes of R1 and R4 on benzene ring, or electron-withdrawing group substitutes derivatives of R2 on benzene ring, such as compound 4. (R1═F and R4═F), compound 6 (R2═CF3), compound 9 (R2═CN) and compound 16 (R1═F and R4═F), (3) compound 4 (R1═F and R4═F) and compound 6 (R2═CF3), a cyclic derivate compound 16 (R1═F and R4═F) and compound 18 (R2═CF3), the inhibitory activity would be stronger.

[2] = test system: RAW 264.7 cells; test: MTT assay, RAW264.7 cell viability; type: cell-based; details: MTT assay, compounds at 5 μM
Procedure: as §1, §2

[3] = test system: RANKL-induced osteoclast differentiation in RAW 264.7 cells; test: TRAP staining, RANKL-induced osteoclast differentiation (TRAP+ multinucleated cells); type: cell-based, murine; details: Mus musculus, RAW264.7; RAW 264.7 cells, RANKL (100 ng/mL), compounds at 5 μM, TRAP-positive multinucleated cells; read-out: Inhibition of MNCs (%)
Procedure: as §1, §2

[4] = test system: NO production; test: Measurement of NO concentrations (Griess reaction) in porcine chondrocytes; type: cell-based; details: Sus scrofa, Chondrocyte, nitrite in supernatants, read-out: anti-inflammatory IC50 (μM) on NO production
Procedure: Porcine cartilage was obtained from the hind leg joints of pigs. The synthesis of chondrocytes from cartilage was performed according to our previous report. After enzymatic digestion of articular cartilage with 2 mg/mL protease in serum-free Dulbecco's modified Eagle's medium (DMEM)/antibiotics, the specimens were then digested overnight with 2 mg/mL collagenase I and 0.9 mg/ml, hyaluronidase in DMEM containing 10% fetal bovine serum (FBS). The cells were collected, passed through a cell strainer (Becton Dickinson, Mountain View, Calif., USA), and cultured in DMEM containing 10% […] and antibiotics for 3-4 days before use.
The measurement of NO release was reflected by determination of its stable end product, nitrite, in supernatants. The Griess reaction was performed with the concentrations of nitrite measured by a spectrophotometer. In brief, an aliquot (100 μL) of culture supernatant was incubated with 50 μL of 0.1% sulfanilamide in 5% phosphoric acid and 50 μL of 0.1% N-1-naphthyl-ethylenediamine dihydrochloride. After 10 min of incubation at room temperature, the absorbance was measured at 550 nm wavelength with a plate reader (recall, Grodig, […]).

| SMILES | CC50 [1] [µM] | Cell viability (%) [2] [%] | inhibition at 5 µM [3] [%] | IC50 [4] [µM] |
| --- | --- | --- | --- | --- |
| O=C(O)c1cc(-c2ccc(F)cc2F)ccc1O [Diflunisal, reference compound] | > 20 | 103.82 ± 1.78 | 23.9 ± 1.88 | > 10 |
| O=C(Nc1ccc(Cl)cc1F)c1cc(-c2ccc(F)cc2F)ccc1O [compound 1, N-(4-chloro-2-fluorophenyl)-2′,4′-difluoro-4-hydroxybiphenyl-3-carboxamide] | 17.9 | 77.54 ± 1.17 | 44.3 ± 7.93 | 7.94 |
| O=C(Nc1ccc(F)cc1F)c1cc(-c2ccc(F)cc2F)ccc1O [compound 2, N-(2,4-difluorophenyl)-2′,4′-difluoro-4-hydroxybiphenyl-3-carboxamide] | > 20 | 109.62 ± 3.37 | 32.2 ± 5.58 | 0.95 |
| O=C(Nc1ccc(F)c(F)c1)c1cc(-c2ccc(F)cc2F)ccc1O [compound 3] | 14.6 | 78.42 ± 3.79 | 47.4 ± 5.58 | 0.79 |
| O=C(Nc1ccccc1C(F)(F)F)c1cc(-c2ccc(F)cc2F)ccc1O [compound 5] | > 20 | 99.37 ± 3.71 | 42.8 ± 6.51 | > 10 |
| O=C(Nc1cccc(C(F)(F)F)c1)c1cc(-c2ccc(F)cc2F)ccc1O [compound 6, 2′,4′-difluoro-4-hydroxy-N-(3-(trifluoromethyl)phenyl)[1,1′-biphenyl]-3-carboxamide] | 14.3 | 96.73 ± 1.18 | 59.2 ± 2.28 | 0.71 |
| O=C(Nc1ccc(C(F)(F)F)cc1)c1cc(-c2ccc(F)cc2F)ccc1O [compound 7, 2′,4′-difluoro-4-hydroxy-N-(4-(trifluoromethyl)phenyl)-[1,1′-biphenyl]-3-carboxamide] | 10.4 | 85.22 ± 3.83 | 51.5 ± 6.25 | 0.64 |
| C#Cc1cccc(NC(=O)c2cc(-c3ccc(F)cc3F)ccc2O)c1 [compound 8, N-(3-ethynylphenyl)-2′,4′-difluoro-4-hydroxy-[1,1′-biphenyl]-3-carboxamide] | > 20 | 62.95 ± 0.85 | 40.6 ± 2.01 | 2.45 |
| N#Cc1cccc(NC(=O)c2cc(-c3ccc(F)cc3F)ccc2O)c1 [compound 9, N-(3-cyanophenyl)-2′,4′-difluoro-4-hydroxy-[1,1′-biphenyl]-3-carboxamide] | 12.3 | 72.15 ± 0.36 | 71.3 ± 3.39 | > 10 |
| N#Cc1ccc(NC(=O)c2cc(-c3ccc(F)cc3F)ccc2O)cc1 [compound 10, N-(4-cyanophenyl)-2′,4′-difluoro-4-hydroxy-[1,1′-biphenyl]-3-carboxamide] | 14.4 | 96.24 ± 2.29 | 13.9 ± 1.23 | > 10 |
| COc1ccc(NC(=O)c2cc(-c3ccc(F)cc3F)ccc2O)cc1OC [compound 11, N-(3,4-dimethoxyphenyl)-2′,4′-difluoro-4-hydroxy-[1,1′-biphenyl]-3-carboxamid] | > 20 | 98.87 ± 2.06 | 51.9 ± 6.5 | 1.5 |
| COc1cccc(NC(=O)c2cc(-c3ccc(F)cc3F)ccc2O)c1 [compound 12, 2′,4′-difluoro-4-hydroxy-N-(3-methoxyphenyl)-[1,1′-biphenyl]-3-carboxamide] | > 20 | 104.90 ± 2.62 | 40.8 ± 2.65 | 2.24 |
| O=c1oc2ccc(-c3ccc(F)cc3F)cc2c(=O)n1-c1ccc(Cl)cc1F [compound 13, 3-(4-chloro-2-fluorophenyl)-6-(2,4-difluorophenyl)-2H-benzo[e][1,3]oxazine-2,4(3H)-dione] | > 20 | 96.22 ± 0.53 | 19.4 ± 1.4 | 1.08 |
| O=c1oc2ccc(-c3ccc(F)cc3F)cc2c(=O)n1-c1ccc(F)cc1F [compound 14, 3,6-bis(2,4-difluorophenyl)-2H-benzo[e][1,3]oxazine-2,4(3H)-dione] | 12.7 | 96.49 ± 1.86 | 42.3 ± 6.62 | 1.26 |
| O=c1oc2ccc(-c3ccc(F)cc3F)cc2c(=O)n1-c1ccc(F)c(F)c1 [compound 15] | 9.96 | 72.15 ± 0.43 | 17.4 ± 7.49 | 0.61 |
| O=c1oc2ccc(-c3ccc(F)cc3F)cc2c(=O)n1-c1ccccc1C(F)(F)F [compound 17, 6-(2,4-difluorophenyl)-3-(2-(trifluoromethy)phenyl)-2H-benzo[e][1,3]oxazine-2,4(3H)-dione] | 15.1 | 95.53 ± 3.86 | 31.6 ± 4 | > 10 |
| O=c1oc2ccc(-c3ccc(F)cc3F)cc2c(=O)n1-c1cccc(C(F)(F)F)c1 [compound 18, 6-(2,4-difluorophenyl)-3-(3-(trifluoromethyl)phenyl)-2H-benzo[e][1,3]oxazine-2,4(3H)-dione] | 13 | 100.13 ± 0.94 | 62.9 ± 2.65 | 0.55 |
| O=c1oc2ccc(-c3ccc(F)cc3F)cc2c(=O)n1-c1ccc(C(F)(F)F)cc1 [compound 19, 6-(2,4-difluorophenyl)-3-(4-(trifluoromethyl)phenyl)-2H-benzo[e][1,3]oxazine-2,4(3H)-dione] | 15.5 | 103.01 ± 2.51 | 16.9 ± 4.61 | 0.75 |
| C#Cc1cccc(-n2c(=O)oc3ccc(-c4ccc(F)cc4F)cc3c2=O)c1 [compound 20, 6-(2,4-difluorophenyl)-3-(3-ethynylphenyl)-2H-benzo[e][1,3]oxazine-2,4(3H)-dione] | 11 | 88.38 ± 4.65 | 57.5 ± 3.25 | 1.63 |
| N#Cc1cccc(-n2c(=O)oc3ccc(-c4ccc(F)cc4F)cc3c2=O)c1 [compound 21, 3-(6-(2,4-difluorophenyl)-2,4-dioxo-2H-benzo[e][1,3]oxazin-3(4H)-yl)benzonitrile] | 14.9 | 102.79 ± 1.93 | 34 ± 6.98 | > 10 |
| N#Cc1ccc(-n2c(=O)oc3ccc(-c4ccc(F)cc4F)cc3c2=O)cc1 [compound 22, 4-(6-(2,4-difluorophenyl)-2,4-dioxo-2H-benzo[e][1,3]oxazin-3(4H)-yl)benzonitrile] | > 20 | 108.33 ± 1.10 | 29.4 ± 5.48 | 0.55 |
| COc1ccc(-n2c(=O)oc3ccc(-c4ccc(F)cc4F)cc3c2=O)cc1OC [compound 23, 6-(2,4-difluorophenyl)-3-(3,4-dimethoxyphenyl)-2H-benzo[e][1,3]oxazine-2,4(3H)-dione] | > 20 | 103.05 ± 4.03 | 21.2 ± 2.49 | 0.47 |
| COc1cccc(-n2c(=O)oc3ccc(-c4ccc(F)cc4F)cc3c2=O)c1 [compound 24, 6-(2,4-difluorophenyl)-3-(3-methoxyphenyl)-2H-benzo[e][1,3]oxazine-2,4(3H)-dione] | > 20 | 105.53 ± 4.7 | 30.8 ± 5.77 | 1.95 |

— patent US9162993B2, “Preparation and pharmaceuticals of biphenyl benzamide-derived derivatives” (NATIONAL DEFENSE MEDICAL CENTER, priority 2012, dated 2015)
